According to PubChem BioAssay (NCI):
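Exposure lasted 48 hours, with cells grown in 96-well plates and compounds tested at five concentrations. GI50 = concentration required for 50% inhibition of growth. At the TGI there is no net growth.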

Key:
Assay in all cases: growth of human tumour cells (NCI), 48 h; in the data active = GI50 below about 0.43 µM; inactive = the rest
786-0 renal = test system: 786-0 renal
HOP-92 NSCLC = test system: HOP-92 NSCLC
NCI/ADR-RES ovarian = test system: NCI/ADR-RES ovarian
SW-620 colon = test system: SW-620 colon
OVCAR-5 ovarian = test system: OVCAR-5 ovarian
SNB-75 CNS = test system: SNB-75 CNS
IGROV1 ovarian = test system: IGROV1 ovarian
OVCAR-3 ovarian = test system: OVCAR-3 ovarian
U251 CNS = test system: U251 CNS
OVCAR-4 ovarian = test system: OVCAR-4 ovarian
UO-31 renal = test system: UO-31 renal
SF-295 CNS = test system: SF-295 CNS
CAKI-1 renal = test system: CAKI-1 renal
OVCAR-8 ovarian = test system: OVCAR-8 ovarian
COLO 205 colon = test system: COLO 205 colon
T-47D breast = test system: T-47D breast
SK-MEL-2 melanoma = test system: SK-MEL-2 melanoma
NCI-H522 lung = test system: NCI-H522 lung
HCC-2998 colon = test system: HCC-2998 colon
SR leukemia = test system: SR leukemia
UACC-62 melanoma = test system: UACC-62 melanoma
DU-145 prostate = test system: DU-145 prostate
HS 578T breast = test system: HS 578T breast
A549 NSCLC = test system: A549 NSCLC
NCI-H460 lung = test system: NCI-H460 lung
SNB-19 CNS = test system: SNB-19 CNS
HCT-15 colon = test system: HCT-15 colon
M14 melanoma = test system: M14 melanoma
CCRF-CEM leukemia = test system: CCRF-CEM leukemia
NCI-H23 lung = test system: NCI-H23 lung
HL-60(TB) leukemia = test system: HL-60(TB) leukemia
KM12 colon = test system: KM12 colon
HT29 colon = test system: HT29 colon
SN12C renal = test system: SN12C renal
ACHN renal = test system: ACHN renal
RXF 393 renal = test system: RXF 393 renal
MOLT-4 leukemia = test system: MOLT-4 leukemia
HCT-116 colon = test system: HCT-116 colon
NCI-H226 lung = test system: NCI-H226 lung
SF-539 CNS = test system: SF-539 CNS
BT-549 breast = test system: BT-549 breast
PC-3 prostate = test system: PC-3 prostate
EKVX NSCLC = test system: EKVX NSCLC
MDA-MB-231 breast = test system: MDA-MB-231 breast
A498 renal = test system: A498 renal
SF-268 CNS = test system: SF-268 CNS
TK-10 renal = test system: TK-10 renal
RPMI-8226 leukemia = test system: RPMI-8226 leukemia
HOP-62 NSCLC = test system: HOP-62 NSCLC
SK-OV-3 ovarian = test system: SK-OV-3 ovarian
K-562 leukemia = test system: K-562 leukemia
MCF7 breast = test system: MCF7 breast
UACC-257 melanoma = test system: UACC-257 melanoma
SK-MEL-28 melanoma = test system: SK-MEL-28 melanoma
MALME-3M melanoma = test system: MALME-3M melanoma
LOX IMVI melanoma = test system: LOX IMVI melanoma
SK-MEL-5 melanoma = test system: SK-MEL-5 melanoma

Cc1cc(C)c(NC(=O)c2sc3nc4c(cc3c2N)C(=O)CCC4)c(C)c1
> 55.3 µM: TGI (SR leukemia)
3.06 µM: TGI (NCI-H522 lung)
> 63.5 µM: TGI (T-47D breast)
> 87.9 µM: TGI (TK-10 renal)
> 51.5 µM: TGI (A498 renal)
> 100 µM: TGI (786-0 renal) | TGI (SW-620 colon) | TGI (OVCAR-5 ovarian) | TGI (SNB-75 CNS) | TGI (IGROV1 ovarian) | TGI (U251 CNS) | TGI (OVCAR-4 ovarian) | TGI (UO-31 renal) | TGI (SF-295 CNS) | TGI (CAKI-1 renal) | TGI (OVCAR-8 ovarian) | TGI (COLO 205 colon) | TGI (UACC-62 melanoma) | TGI (DU-145 prostate) | TGI (HS 578T breast) | TGI (A549 NSCLC) | TGI (SNB-19 CNS) | TGI (HCT-15 colon) | TGI (M14 melanoma) | TGI (CCRF-CEM leukemia) | TGI (NCI-H23 lung) | TGI (HL-60(TB) leukemia) | TGI (KM12 colon) | TGI (SN12C renal) | TGI (ACHN renal) | TGI (MOLT-4 leukemia) | TGI (HCT-116 colon) | TGI (NCI-H226 lung) | TGI (PC-3 prostate) | TGI (EKVX NSCLC) | TGI (MDA-MB-231 breast) | TGI (SF-268 CNS) | TGI (RPMI-8226 leukemia) | TGI (HOP-62 NSCLC) | TGI (SK-OV-3 ovarian) | TGI (K-562 leukemia) | TGI (MCF7 breast) | TGI (SK-MEL-28 melanoma) | TGI (MALME-3M melanoma) | TGI (LOX IMVI melanoma)
active: GI50 (HOP-92 NSCLC) 0.114 µM
32.1 µM: TGI (HOP-92 NSCLC)
> 35.4 µM: TGI (BT-549 breast)
> 30.6 µM: TGI (SF-539 CNS)
> 95.9 µM: TGI (UACC-257 melanoma)
inactive: GI50 (786-0 renal) 6.85 µM | GI50 (NCI/ADR-RES ovarian) 2.08 µM | GI50 (SW-620 colon) 2.87 µM | GI50 (OVCAR-5 ovarian) 7.98 µM | GI50 (SNB-75 CNS) 2.28 µM | GI50 (IGROV1 ovarian) 5.58 µM | GI50 (OVCAR-3 ovarian) 2.46 µM | GI50 (U251 CNS) 3.49 µM | GI50 (OVCAR-4 ovarian) 6.89 µM | GI50 (UO-31 renal) 9.04 µM | GI50 (SF-295 CNS) 0.755 µM | GI50 (CAKI-1 renal) 2.66 µM | GI50 (OVCAR-8 ovarian) 5.88 µM | GI50 (COLO 205 colon) 3.23 µM | GI50 (T-47D breast) 5 µM | GI50 (SK-MEL-2 melanoma) 0.468 µM | GI50 (NCI-H522 lung) 0.6 µM | GI50 (HCC-2998 colon) 3.07 µM | GI50 (SR leukemia) 3 µM | GI50 (UACC-62 melanoma) 1.31 µM | GI50 (DU-145 prostate) 3.36 µM | GI50 (HS 578T breast) 4.51 µM | GI50 (A549 NSCLC) 2.51 µM | GI50 (NCI-H460 lung) 1.56 µM | GI50 (SNB-19 CNS) 6.12 µM | GI50 (HCT-15 colon) 2.59 µM | GI50 (M14 melanoma) 2.31 µM | GI50 (CCRF-CEM leukemia) 3.15 µM | GI50 (NCI-H23 lung) 3.9 µM | GI50 (HL-60(TB) leukemia) 3.64 µM | GI50 (KM12 colon) 2.8 µM | GI50 (HT29 colon) 3.09 µM | GI50 (SN12C renal) 7.42 µM | GI50 (ACHN renal) 6.11 µM | GI50 (RXF 393 renal) 1.32 µM | GI50 (MOLT-4 leukemia) 5.68 µM | GI50 (HCT-116 colon) 3.85 µM | GI50 (NCI-H226 lung) 5.81 µM | GI50 (SF-539 CNS) 2.59 µM | GI50 (BT-549 breast) 7.29 µM | GI50 (PC-3 prostate) 1.96 µM | GI50 (EKVX NSCLC) 4.28 µM | GI50 (MDA-MB-231 breast) 7.26 µM | GI50 (A498 renal) 3.4 µM | GI50 (SF-268 CNS) 6.69 µM | GI50 (TK-10 renal) 4.5 µM | GI50 (RPMI-8226 leukemia) 4.74 µM | GI50 (HOP-62 NSCLC) 4.56 µM | GI50 (SK-OV-3 ovarian) 2.07 µM | GI50 (K-562 leukemia) 1.9 µM | GI50 (MCF7 breast) 2.09 µM | GI50 (UACC-257 melanoma) 10 µM | GI50 (SK-MEL-28 melanoma) 5.9 µM | GI50 (MALME-3M melanoma) 1.83 µM | GI50 (LOX IMVI melanoma) 5.39 µM | GI50 (SK-MEL-5 melanoma) 0.998 µM
8.62 µM: TGI (OVCAR-3 ovarian)
38.7 µM: TGI (SK-MEL-2 melanoma)
13.8 µM: TGI (SK-MEL-5 melanoma)
11.1 µM: TGI (HT29 colon)
6.45 µM: TGI (NCI/ADR-RES ovarian)
4.43 µM: TGI (RXF 393 renal)
21.2 µM: TGI (NCI-H460 lung)
> 78.2 µM: TGI (HCC-2998 colon)

COc1ccc(-c2nc3ccccn3c2/C=C/C(=O)c2cc(OC)c(OC)c(OC)c2)cc1OC
15.1 µM: TGI (HCC-2998 colon)
35.5 µM: TGI (NCI-H522 lung)
6.12 µM: TGI (HL-60(TB) leukemia)
11.1 µM: TGI (OVCAR-8 ovarian)
20.2 µM: TGI (CAKI-1 renal)
30 µM: TGI (HOP-62 NSCLC)
40.6 µM: TGI (NCI-H226 lung)
30.7 µM: TGI (A549 NSCLC)
65.2 µM: TGI (SF-268 CNS)
12.1 µM: TGI (IGROV1 ovarian)
14.7 µM: TGI (SF-539 CNS) | TGI (SK-MEL-28 melanoma)
8.56 µM: TGI (OVCAR-3 ovarian)
71 µM: TGI (786-0 renal)
45 µM: TGI (MDA-MB-231 breast)
12.7 µM: TGI (UO-31 renal)
55.6 µM: TGI (SW-620 colon)
22.1 µM: TGI (UACC-62 melanoma)
6.62 µM: TGI (LOX IMVI melanoma)
11.4 µM: TGI (KM12 colon)
65.5 µM: TGI (U251 CNS)
8.74 µM: TGI (TK-10 renal)
15.4 µM: TGI (UACC-257 melanoma)
12 µM: TGI (HCT-116 colon)
7.19 µM: TGI (SK-MEL-2 melanoma)
> 100 µM: TGI (SNB-75 CNS) | TGI (COLO 205 colon) | TGI (T-47D breast) | TGI (SNB-19 CNS) | TGI (CCRF-CEM leukemia) | TGI (NCI-H23 lung) | TGI (HT29 colon) | TGI (PC-3 prostate) | TGI (EKVX NSCLC) | TGI (SK-OV-3 ovarian) | TGI (K-562 leukemia) | TGI (MCF7 breast)
9.82 µM: TGI (HS 578T breast)
83.7 µM: TGI (SN12C renal)
inactive: GI50 (786-0 renal) 3.74 µM | GI50 (NCI/ADR-RES ovarian) 2.18 µM | GI50 (SW-620 colon) 2.78 µM | GI50 (OVCAR-5 ovarian) 7.38 µM | GI50 (SNB-75 CNS) 3.92 µM | GI50 (IGROV1 ovarian) 3.03 µM | GI50 (OVCAR-3 ovarian) 2.47 µM | GI50 (U251 CNS) 2.91 µM | GI50 (UO-31 renal) 0.552 µM | GI50 (SF-295 CNS) 1.85 µM | GI50 (CAKI-1 renal) 1.39 µM | GI50 (OVCAR-8 ovarian) 2.83 µM | GI50 (COLO 205 colon) 3.92 µM | GI50 (T-47D breast) 3.01 µM | GI50 (SK-MEL-2 melanoma) 2.37 µM | GI50 (NCI-H522 lung) 2.74 µM | GI50 (HCC-2998 colon) 3.79 µM | GI50 (UACC-62 melanoma) 4.86 µM | GI50 (DU-145 prostate) 2.63 µM | GI50 (HS 578T breast) 1.85 µM | GI50 (A549 NSCLC) 3.86 µM | GI50 (NCI-H460 lung) 2.99 µM | GI50 (SNB-19 CNS) 4.91 µM | GI50 (HCT-15 colon) 3.73 µM | GI50 (M14 melanoma) 4.48 µM | GI50 (CCRF-CEM leukemia) 1.54 µM | GI50 (NCI-H23 lung) 3.78 µM | GI50 (HL-60(TB) leukemia) 2.53 µM | GI50 (KM12 colon) 2.52 µM | GI50 (HT29 colon) 3.2 µM | GI50 (SN12C renal) 4.1 µM | GI50 (ACHN renal) 3.22 µM | GI50 (HCT-116 colon) 2.62 µM | GI50 (NCI-H226 lung) 6.1 µM | GI50 (SF-539 CNS) 2.71 µM | GI50 (BT-549 breast) 0.899 µM | GI50 (PC-3 prostate) 3.71 µM | GI50 (EKVX NSCLC) 1.71 µM | GI50 (MDA-MB-231 breast) 3.28 µM | GI50 (A498 renal) 2.93 µM | GI50 (SF-268 CNS) 3.58 µM | GI50 (TK-10 renal) 3.28 µM | GI50 (HOP-62 NSCLC) 4.42 µM | GI50 (SK-OV-3 ovarian) 4.92 µM | GI50 (K-562 leukemia) 2.99 µM | GI50 (MCF7 breast) 2.76 µM | GI50 (UACC-257 melanoma) 3.24 µM | GI50 (SK-MEL-28 melanoma) 3.3 µM | GI50 (MALME-3M melanoma) 2.36 µM | GI50 (LOX IMVI melanoma) 2.26 µM | GI50 (SK-MEL-5 melanoma) 1.5 µM
8.04 µM: TGI (NCI/ADR-RES ovarian)
53.3 µM: TGI (OVCAR-5 ovarian)
7.34 µM: TGI (MALME-3M melanoma)
12.6 µM: TGI (NCI-H460 lung)
2.92 µM: TGI (SK-MEL-5 melanoma)
35.1 µM: TGI (HCT-15 colon)
8.14 µM: TGI (DU-145 prostate)
2.51 µM: TGI (RPMI-8226 leukemia)
17.8 µM: TGI (A498 renal)
active: GI50 (RPMI-8226 leukemia) 0.398 µM
15.7 µM: TGI (ACHN renal)
3.2 µM: TGI (BT-549 breast)
45.1 µM: TGI (M14 melanoma)
4.42 µM: TGI (SF-295 CNS)
